Assays:
[1] = test system: murine BM-MDSC; experiment: In vitro suppression assay with murine BM-MDSC; format: cell-based, mouse; conditions: for potential of Thaps-treated Eif2ak3^KO-Tek BM-MDSC to impair T cell proliferation: 3 hours pre-treatment, Resveratrol 100 μM or D,L-Sulphoraphane 20 μM
Procedure: (§1) Mouse BM-MDSC were generated after culturing BM precursors with GM-CSF and G-CSF (20 ng/ml each) for 4 days. In vitro generated MDSC were treated with either LLC tumor explant supernatants (TES, since day 0) or Thaps (200 nM, for the last 24 hours of culture). Human BM-MDSC were developed after culturing BM or peripheral blood precursors from healthy donors with GM-CSF and IL-6 (10 ng/ml each) for a period of 6 days (Thevenot et al., 2014). To induce UPR activation, MDSC were treated with either supernatants from renal cell carcinoma cells 786-0 (hTES) for 6 days (Rodriguez et al., 2009) or Thaps during the last 24 hours before collection (200 nM). In some experiments, MDSC were pre-incubated for 3 hours with Resveratrol (100 μM, Sigma-Aldrich), D,L-Sulphoraphane (20 μM), AMG-44 (5 μM), or TUDCA (500 nM) before treating with Thaps.
(§2) Murine BM-MDSC (ratio 1:1/8) or tumor-MDSC (ratio 1:1/4) were co-cultured with negatively selected CD3^+ T cells in a 96 well plate bound α-CD3 and α-CD28 (1 μg/ml each, eBioscience) for 3 days. T cell proliferation was assessed with Carboxyfluorescein succinimidyl ester (CFSE) or Cell-trace violet (Invitrogen) dye dilution detected by flow cytometry. For human studies, MDSC were co-cultured with enriched CD3^+ T cells activated with soluble α-CD3 (1 μg/ml, clone OKT3) and α-CD28 (0.5 μg/ml, clone L293) for 3 days in a 96 well plate bound with goat anti-mouse IgG (10 μg/ml). Results are expressed as percentage of proliferating T cells, determined by the dilution of fluorescence compared with non-stimulated T cells.

[2] = test system: B16 tumors; experiment: s.c. B16 melanoma tumor model in mice; format: in vivo
[3] = test system: tumor-MDSC; experiment: Ex vivo suppression assay: tumor-MDSC co-cultured with primed CFSE-labeled T cells; format: cell-based, mice
Procedure: CD3^+ T cells were enriched using mouse or human T cell negative selection kits (MagniSort, Invitrogen) from the spleen and lymph nodes of C57BL/6 mice; or from purchased human buffy-coat units (One-Blood, Tampa, Fla.). Purity ranged between 95% and 99% as tested by flow cytometry. For antigen-specific priming studies, CD8^+ T cells were enriched using negative selection kits from the spleens of OT-I mice previously activated with OVA257-264 (SIINFEKL) for 48 hours. Tumor-MDSC were isolated from cellular suspensions of digested tumors followed by positive selection (MojoSort Streptavidin Nanobeads, Biolegend) using anti-Gr1 (Clone RB6-8C5, eBioscience) or anti-CD11b-biotinylated antibodies (Clone M1/70, StemCell Technologies, Vancouver). Also, M-MDSC (CD11b^+Gr1^+Ly6G^lowLy6C^high), PMN-MDSC (CD11b^+Gr1^+Ly6G^+Ly6C^low), macrophages (CD11b^+Gr1^negF4/80^+CD11c^neg), and myeloid DCs (CD11b^+Gr1^negF4/80^negCD11c^+) were sorted from tumors in a FACSAriaII (BD Biosciences).
as §2

[4] = test system: CD8+ TILs; experiment: Flow cytometry of tumor-infiltrating CD8+ T cells from treated mice; format: in vivo
Procedure: All analysis was performed using FlowJo version 11 software.

[5] = Blood glucose and pancreatic islets in B16-bearing mice; format: in vivo; conditions: B16-bearing mice treated for a week; GSK2606414 25 mg/kg or AMG-44 12 mg/kg; day 17
Description: Hematoxylin and Eosin (H&E) stained slides were scanned in an Aperio AT2 whole slide scanner (Leica Biosystems Inc.) equipped with a 20×0.7NA objective lens Images were created at 0.5 micron per pixel resolution and imported into Definiens Tissue Studio software v4.7 (Definiens AG) for analysis. Islets were found using a semi-automated segmentation process. First an automatic segmentation was applied to the image to create contour lines around objects within the image. Objects that contained islets were classified as such and remaining objects were classified as non-islet tissue. Next, adjacent objects of the same classification were merged together to clean up the segmentation. Segmented images were analyzed to provide the total area of islets Immunofluorescence for mouse insulin in pancreas tissue sections was performed as we described (Sultan et al., 2017). Labeled samples were scanned with a Zeiss Imager Z2 Upright FL microscope with a 10× objective lens using the tile scan function. Images were created at a
0.65 micron per pixel resolution and imported into the Definiens Tissue Studio software v4.7 (Definiens AG) for islet detection and analysis. Islets were detected using a semi-automated segmentation process. First, an automatic segmentation was applied to the image to detect the tissue. Then, the software was trained to detect islet vs. non-islet tissue within the image. In order to remove false detected islets caused by background staining, detected islets larger than 150,000 square microns and less than 600 square microns were reclassified to non-islet tissue. Segmented images were then analyzed to provide the fluorescent intensity of islets and total tissue area.

[6] = cited from earlier work
[7] = test system: LLC tumors; experiment: s.c. LLC tumor model in mice; format: in vivo
[8] = test system: human BM-MDSC; experiment: In vitro suppression assay with human BM-MDSC; format: cell-based
Procedure: as §1
as §2, with “For human studies, MDSC were co-cultured with enriched CD3^+ T cells activated with soluble α-CD3 (1 μg/ml, clone OKT3) and α-CD28 (0.5 μg/ml, clone L293) for 3 days in a 96 well plate bound with goat anti-mouse IgG (10 μg/ml).” left out

[9] = test system: Arginase I; experiment: Immunoblot of Arginase I in tumor-MDSC; format: cell-based; conditions: mice treated with TUDCA vs vehicle
Description: (§3) Equal protein amounts of total and nuclear cell lysates were electrophoresed in 8 or 10% Tris-Glycine gels (Novex-Invitrogen), transferred to PVDF membranes by iBlot™ Gel Transfer Device (ThermoFisher), and blotted with the corresponding primary and secondary antibodies described in Key Resources Table. For nuclear fraction isolation, cells were lysed using NE-PER Nuclear and Cytoplasmic extraction kit (ThermoFisher). Membrane-bound immune complexes were detected by ChemiDoc™ Imaging System (Bio-Rad, #17001401).

[10] = test system: PERK; experiment: Immunoblot of PERK and phospho-PERK in MDSC; format: cell-based, mice
Description: as §3

[11] = test system: IRE1α; experiment: Immunoblot of IRE1α and phospho-IRE1α in MDSC; format: cell-based, mice
Description: as §3

[12] = test system: tumor-MDSC from Pan02-OVA-ZsGreen tumors; experiment: Cross-presentation by tumor-MDSC from Pan02-OVA-ZsGreen tumors; format: cell-based; conditions: TUDCA-treated mice bearing Pan02-OVA-ZsGreen tumors
Procedure: For antigen loading experiments, MDSC were sorted from LLC tumors and then pulsed with 1 μg/ml complete ovalbumin (OVA). After 16 hours, cells were washed twice and 2.5×10^4 MDSC co-cultured with 1×10^5 CFSE-labeled naïve CD8^+ T cells from spleens of OT-I mice (ratio 0.25:1). Positive controls included co-cultures of OT-I T cells with GM-CSF plus IL-4-derived BM-DCs loaded with 1 μg/ml complete OVA. For TME cross-priming assays, 1.25×10^4 MDSC from Pan02-Ova-ZsGreen tumors were co-cultured with 5×10^4 naïve CD8^+ T cells (1/4:1) from spleens of OT-I mice and labelled with Cell-trace violet. Positive control wells included OT-I T cells co-cultured with GM-CSF plus IL-4-derived BM-DCs loaded with 1 μg/ml OVA257-264 peptide. T cell proliferation was measured after 3 days of co-culture.

[13] = test system: Ifnβ1 mRNA; experiment: Quantitative PCR of Ifnβ1 mRNA in MDSC; format: cell-based; conditions: mice treated with SFRN vs untreated PERK-null mice
Procedure: Total RNA was isolated from MDSC using TRIzol (Life Technologies). Reverse transcription was performed using Verso cDNA Synthesis Kit (Thermo Scientific). Quantitative PCR reactions were prepared by using Bio-Rad SYBR green master mix and performed on an Applied Biosystems thermocycler (7900 HT) using primers described in Key Resources Table

[14] = test system: tumor-MDSC; conditions: LLC-bearing mice treated with SFRN
Procedure: For surface staining, cells were labelled with the appropriate antibodies in the presence of Fc blocker. For intracellular staining, surface-labeled cells were fixed with Cytofix/Cytoperm™ Solution (BD Biosciences), washed in Perm/Wash™ 1× solution, and labelled with intracellular antibodies. Cells were then washed in Perm/Wash™ 1× and PBS. Live vs. dead cell discrimination was performed prior to antibody labeling by Zombie Fixable Viability dye (Biolegend). Ex vivo intracellular staining for IL-12 and TNFα was performed on isolated cells after stimulation for 6 hours with LPS (1 μg/ml, Sigma Aldrich) in the presence of Golgi stop (0.8 μl/ml, BD Biosciences). For IFNγ staining, cells were incubated for 5 hours with phorbol myristate acetate (PMA, 750 ng/mL, Sigma Aldrich) and ionomycin (50 μg/mL, Sigma-Aldrich) in the presence and Golgi stop (0.8 μl/ml). For ER-tracker and Mitotracker staining, cells were probed with 100 nM of ER tracker green or 200 nM of Mitotracker green (Invitrogen) and then stained for surface markers. For Mitochondrial membrane potential, cells were stained with JC-1 flow cytometry assay kit (Cayman chemicals) followed by surface markers staining. ROS were detected by DCFDA (10 μM) or Dihydroethidium (DHE, 10 μM). Data acquisition was performed in a CytoFLEX II (Beckman Coulter) or LSRII (BD Biosciences). All analysis was performed using FlowJo version 11 software.

[15] = test system: tumor-MDSC; conditions: tumor-bearing Eif2ak3^KO-Lyz2 mice treated with SFRN vs untreated or Eif2ak3^Flox
Procedure: Oxygen consumption rate (OCR) through mitochondrial stress test and extracellular acidification rate (ECAR) by glycolysis stress profile were measured using a XF96 extracellular flux analyzer (Seahorse Bioscience). MDSC were plated onto CellTak pre-coated wells (1×10^5 cells/well in triplicate), and subjected to mitochondrial stress and glycolysis stress protocols using specific non-buffered XF base mediums. For OCR, cells were analyzed under basal conditions and in response to 2 μM oligomycin, 2 μM fluorocarbonyl-cyanide-phenylhydrazone (FCCP), and 0.5 μM rotenone. For ECAR, cells were plated in XF media lacking glucose and monitored under basal conditions and in response to 10 mM glucose, 10 μM oligomycin, and 100 mM 2-Deoxy-D-glucose (2-DG). Final values were obtained after protein normalization among the conditions.

[16] = mice treated with TUDCA vs controls
[17] = LLC, SFRN 25 mg/kg i.p., 3 days per week
[18] = LLC-bearing mice, Thaps 100 μg/kg i.p. vs vehicle
[19] = BM-MDSC, Thaps 200 nM, last 24 hours

With Oc1ccc(C=Cc2cc(O)cc(O)c2)cc1 [Resveratrol] the “potential of Thaps-treated Eif2ak3^KO-Tek BM-MDSC to impair T cell proliferation” value [1] was “partially restored the potential”.
For Cn1cc(-c2ccc3c(c2)CCN3C(=O)Cc2cccc(C(F)(F)F)c2)c2c(N)ncnc21 [GSK-2606414], the tumor growth ([2]; B16-bearing mice, GSK-2606414 25 mg/kg i.p. daily vs vehicle) was “Delayed tumor growth”, the tumor growth ([2]; B16, daily i.p. GSK2606414 25 mg/kg or AMG-44 12 mg/kg from day 7) was “delayed tumor growth” and the “immunoinhibitory activity of MDSC” value ([3]; MDSC from tumors of GSK-2606414 treated B16-bearing mice) was “lower immunoinhibitory activity of MDSC”. The “frequency of IFNγ-producing CD8+ T cells in tumors” value ([4]; B16, GSK2606414 25 mg/kg or AMG-44 12 mg/kg, 17 days post-tumor injection) was “amplified the frequency of IFNγ-producing CD8^+ T cells in tumors”, the “glucose levels in the serum” value [5] was “failed to show alterations in glucose levels” and the “hyperglycemia at high doses” value ([6]; 150 mg/kg, orally twice a day, previous studies) was “induced hyperglycemia”. For the same molecule, the “limitation for therapeutic use” value ([6]; Yu et al., 2015) was “induction of hyperglycemia as a result of pancreatic islet degeneration”.
With C[C@H](CCC(=O)NCCS(=O)(=O)O)[C@H]1CC[C@H]2[C@@H]3[C@@H](O)C[C@@H]4C[C@H](O)CC[C@]4(C)[C@H]3CC[C@]12C [TUDCA, Tauroursodeoxycholic acid] the “anti-tumor actions in immunodeficient Rag1^KO mice” value ([7]; LLC tumors, TUDCA, Rag1^KO vs wild type mice) was “not found”, the tumor growth ([7]; established LLC tumors, TUDCA 250 mg/kg daily after day 6 vs vehicle) was “delayed tumor growth” and the tumor growth ([2]; established B16 tumors, TUDCA 250 mg/kg daily after day 6 vs vehicle) was “delayed tumor growth”. For the same molecule, the “ability to block T cell proliferation” value ([3]; LLC tumor-MDSC pre-treated ex vivo with TUDCA for 24 hours) was “impaired the ability”, the “ability of tumor-MDSC to block T cell proliferation” value ([3]; tumor-MDSC (1:1/4) from LLC or B16 bearing mice treated with TUDCA vs vehicle) was “lower ability to block T cell proliferation” and the “ability to block T cell proliferation” value ([1]; murine BM-MDSC developed after exposing BM-iMC to TES, TUDCA in culture) was “impaired the ability”. The “ability to block T cell proliferation” value ([8]; human BM-MDSC conditioned with hTES, TUDCA in culture) was “impaired the ability”, the “levels of Arginase I in tumor-MDSC” value [9] was “reduced levels of the inhibitory factor Arginase I” and the “expression of phospho-PERK in tumor-MDSC” value [10, 16] was “lower expression of phospho-PERK”. The “expression of phospho-IRE1α in tumor-MDSC” value [11, 16] was “lower expression of phospho-PERK and phospho-IRE 1α”, the “expansion of recently activated CD69+ CD44+ CD8+ T cells in tumors” value ([4]; B16-bearing mice treated with TUDCA) was “Higher expansion” and the “EGSRNQDWL-H-2D^b-tetramer+ CD8+ T cells recognizing gp100” value ([4]; B16-bearing mice, single treatment) was “promoted the spontaneous expansion”. The “recently activated CD69+ CD44+ CD8+ T cells” value ([4]; B16-bearing mice, single treatment (anti-Gr1 experiment)) was “promoted the spontaneous expansion”, the “expansion of recently activated CD69+ CD44+ CD8+ T cells in tumors” value ([4]; LLC-bearing mice treated with TUDCA) was “Higher expansion” and the “capacity of tumor-MDSC to prime OT-I T cell proliferation” value [12] was “higher capacity to prime OT-I T cell proliferation”. The “expression of SIINFEKL-bound H-2K^b in tumor-MDSC” value [12] was “heightened expression”.
With C[S+]([O-])CCCCN=C=S (stereo not drawn) [SFRN, Sulforaphane] the “anti-tumor effects found in Eif2ak3^KO-Lyz2 mice” value [7, 17] was “disabled the anti-tumor effects”, the “tumor progression in Eif2ak3^Flox mice” value [7, 17] was “delaying tumor progression” and the “ROS levels and immunoregulatory potential of control MDSC” value ([3]; LLC-bearing Eif2ak3^Flox mice treated with SFRN) was “without affecting controls”. The “immunoregulatory potential of tumor Eif2ak3^KO-Lyz2 MDSC” value ([3]; LLC-bearing mice treated with SFRN, 1:1/4) was “restored the immunoregulatory potential”, the “potential of Thaps-treated Eif2ak3^KO-Tek BM-MDSC to impair T cell proliferation” value [1] was “partially restored the potential” and the “Ifnβ1 mRNA in tumor-MDSC from Eif2ak3^KO-Lyz2 mice” value [13] was “reduced Ifnβ1 mRNA levels”. For the same molecule, the “ROS levels in tumor Eif2ak3^KO-Lyz2 MDSC” value [14] was “reduced ROS levels” and the “OCR of tumor-MDSC” value [15] was “elevated OCR”.
In the case of C/C=C(/C)C(=O)O[C@H]1C(C)=C2[C@H]([C@@H]1OC(=O)CCCCCCC)[C@@](C)(OC(C)=O)C[C@H](OC(=O)CCC)[C@@]1(O)[C@H]2OC(=O)[C@@]1(C)O [Thaps, Thapsigargin], the “expansion of splenic-MDSC” value [7, 18] is reported as “increased the expansion of splenic-MDSC”, the tumor progression [7, 18] is reported as “promoted tumor progression” and the “immunoregulatory potential of tumor-MDSC” value ([3]; tumor-MDSC from LLC-bearing mice treated with Thaps) is reported as “elevated the immunoregulatory potential of tumor-MDSC”. The “ability to block T cell proliferation” value ([1]; murine BM-MDSC, Thaps 200 nM, last 24 hours) was “enhanced ability to block T cell proliferation”, the “ability to block T cell proliferation” value ([8]; human BM-MDSC, Thaps, last 24 hours) was “enhanced ability to block T cell proliferation” and the “total and phosphorylated PERK” value [10, 19] was “upregulation of total and phosphorylated PERK”. For the same molecule, the “total and phosphorylated IRE1α” value [11, 19] was “upregulation of total and phosphorylated PERK and IRE1α”.
